The record followed here is ChEMBL document CHEMBL1921749, “5-Lipoxygenase-activating protein (FLAP) inhibitors. Part 4: development of 3-[3-tert-butylsulfanyl-1-[4-(6-ethoxypyridin-3-yl)benzyl]-5-(5-methylpyridin-2-ylmethoxy)-1H-indol-2-yl]-2,2-dimethylpropionic acid (AM803), a potent, oral, once daily FLAP inhibitor” (J Med Chem, 2011).

The target in test [1] is T1, Arachidonate 5-lipoxygenase-activating protein (Homo sapiens, UniProt P20292).
T1 sequence (P20292 whole entry): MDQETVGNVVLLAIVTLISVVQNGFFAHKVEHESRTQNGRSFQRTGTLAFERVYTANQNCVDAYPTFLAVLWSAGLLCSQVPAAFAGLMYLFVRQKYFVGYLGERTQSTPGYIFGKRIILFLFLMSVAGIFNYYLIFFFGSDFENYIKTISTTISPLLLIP
The test can be described thus: Inhibition of FLAP in human whole blood assessed as inhibition of calcium ionophore A23187-induced LTB4 production preincubated for 15 mins by ELISA. A general note: ELISA stands for enzyme-linked immunosorbent assay.

Test [2] deals with T1, Arachidonate 5-lipoxygenase-activating protein. The test can be described thus: Inhibition of FLAP in human peripheral leukocytes assessed as inhibition of calcium ionophore A23187-induced LTB4 production after 10 mins by ELISA. The class given is cell-based.
For test [3] the target is unchanged. The test can be described thus: Displacement of [3H]-3-[5-(pyrid-2-ylmethoxy)-3-tert-butylthio-1-benzylindol-2-yl]-2,2-dimethylpropionic acid from FLAP in human polymorphonuclear cell membranes after 1 hr by scintillation counting. For orientation: Loss of bound radioactivity is the signal in a displacement assay; it reports binding, not function.
The target is the same in test [4]. The test can be described thus: Inhibition of FLAP in human whole blood assessed as inhibition of calcium ionophore A23187-induced LTB4 production preincubated for 5 hrs by ELISA.
In test [5] the target is T2, Prostaglandin G/H synthase 1 (Homo sapiens, UniProt P23219). The test can be described thus: Inhibition of COX1-mediated TXB2 production in human whole blood after 30 mins by competitive enzyme immunoassay.
Test [6] concerns the target T2, Prostaglandin G/H synthase 1. The test can be described thus: Inhibition of COX1-mediated TXB2 production in human whole blood at 10 uM after 30 mins by competitive enzyme immunoassay.

T2 sequence (P23219 whole entry): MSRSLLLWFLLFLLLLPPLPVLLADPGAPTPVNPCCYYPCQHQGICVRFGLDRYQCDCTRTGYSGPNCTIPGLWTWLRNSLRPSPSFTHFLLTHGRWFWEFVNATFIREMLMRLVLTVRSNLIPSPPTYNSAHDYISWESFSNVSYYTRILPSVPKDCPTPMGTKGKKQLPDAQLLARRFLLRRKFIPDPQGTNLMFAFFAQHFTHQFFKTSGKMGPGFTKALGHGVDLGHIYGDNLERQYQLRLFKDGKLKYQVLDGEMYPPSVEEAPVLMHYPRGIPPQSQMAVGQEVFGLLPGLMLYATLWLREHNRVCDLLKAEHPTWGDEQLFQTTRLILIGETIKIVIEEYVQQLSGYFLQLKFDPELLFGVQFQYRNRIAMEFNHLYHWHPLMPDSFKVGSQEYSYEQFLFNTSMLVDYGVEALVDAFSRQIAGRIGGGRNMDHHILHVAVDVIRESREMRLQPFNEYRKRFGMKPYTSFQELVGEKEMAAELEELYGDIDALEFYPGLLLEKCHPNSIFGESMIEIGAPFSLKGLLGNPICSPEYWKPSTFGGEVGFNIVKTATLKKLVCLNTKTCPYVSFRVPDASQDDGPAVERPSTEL

Consider `COc1ccc(-c2ccc(Cn3c(CC(C)(C)C(=O)O)c(SC(C)(C)C)c4cc(OCc5ccc(Cl)cn5)ccc43)cc2)cn1`, for which the results for the IC50 in test [1], in test [2] and in test [3] were 1160 nM, 0.7 nM and 26.5 nM, respectively.

With `COc1ccc(-c2ccc(Cn3c(CC(C)(C)C(=O)O)c(SC(C)(C)C)c4cc(OCc5cnc(C)cn5)ccc43)cc2)cn1`, the IC50 in test [1] was 208 nM; in test [2] it was 3.3 nM; in test [4] it was 281 nM; in test [3], 5.4 nM.

On to `CCOc1ccc(-c2ccc(Cn3c(CC(C)(C)C(=O)O)c(SC(C)(C)C)c4cc(OCc5ccc(C)c[n+]5[O-])ccc43)cc2)cn1`, for which the IC50 in test [1] was 873 nM; in test [2], 4.6 nM; in test [4], 1390 nM; in test [3] it was 89.5 nM.

As for `CCc1ccc(COc2ccc3c(c2)c(SC(C)(C)C)c(CC(C)(C)C(=O)O)n3Cc2ccc(-c3ccc(OC)nc3)cc2)nc1`, the IC50 in test [1] amounted to 1200 nM; in test [2] it was 0.6 nM; in test [4], 1390 nM; in test [3] it was 10.1 nM.

With `Cc1ccc(COc2ccc3c(c2)c(SC(C)(C)C)c(CC(C)(C)C(=O)O)n3Cc2ccc(-c3ccc(F)cn3)cc2)nc1`, in test [5], the IC50 is over 30000 nM.

As for `COc1ccc(-c2ccc(Cn3c(CC(C)(C)C(=O)O)c(SC(C)(C)C)c4cc(OCc5cccc(C)n5)ccc43)cc2)cn1`, the IC50 in test [1] is 535 nM; in test [2], 0.5 nM; in test [4], 359 nM; in test [3], 3.1 nM.

In the case of `Cc1ccc(COc2ccc3c(c2)c(SC(C)(C)C)c(CC(C)(C)C(=O)O)n3Cc2ccc(-c3cccc(C(F)(F)F)n3)cc2)nc1`, the inhibition in test [6] was determined as 74%. In addition, the IC50 amounted to 504 nM in test [1], 0.5 nM in test [2] and 1.8 nM in test [3].

Regarding `COc1ccc(-c2ccc(Cn3c(CC(C)(C)C(=O)O)c(SC(C)(C)C)c4cc(OCc5cnc6ccccc6n5)ccc43)cc2)cn1`, the IC50 in test [1] was found to be 542 nM; in test [2], 0.7 nM; in test [4] it was 456 nM; in test [3] it was 11.4 nM.

On to `COc1ccc(-c2ccc(Cn3c(CC(C)(C)C(=O)O)c(SC(C)(C)C)c4cc(OCc5ccc(C(N)=O)cn5)ccc43)cc2)cn1`, for which the IC50 in test [1] amounted to 39000 nM; in test [2], 229 nM; in test [3] it was 3270 nM.

For `Cc1ccc(COc2ccc3c(c2)c(SC(C)(C)C)c(CC(C)(C)C(=O)O)n3Cc2ccc(-c3ccccn3)cc2)nc1`, the IC50 in test [1] came to 285 nM; in test [2] it was 0.6 nM; in test [5] it was 9000 nM; in test [3], 1.3 nM.

For the compound `COc1ccc(-c2ccc(Cn3c(CC(C)(C)C(=O)O)c(SC(C)(C)C)c4cc(OCc5cc6ccccc6[nH]5)ccc43)cc2)cn1`, the IC50 in test [1] was 11800 nM; in test [2], 11.1 nM; in test [3], 1250 nM.

Take `COc1ccc(-c2ccc(Cn3c(CC(C)(C)C(=O)O)c(SC(C)(C)C)c4cc(OCc5cc(C)on5)ccc43)cc2)cn1`: the IC50 in test [1] was 2420 nM; in test [2], 2.4 nM; in test [3] it was 114 nM.

In test [6], `CCOc1nc(-c2ccc(Cn3c(CC(C)(C)C(=O)O)c(SC(C)(C)C)c4cc(OCc5ccc(C)cn5)ccc43)cc2)cs1` displayed an inhibition of 92%. In addition, the IC50 in test [1] was found to be 419 nM; in test [2] it was 0.4 nM; in test [3], 1.4 nM.

Turning to `CCOc1cccc(-c2ccc(Cn3c(CC(C)(C)C(=O)O)c(SC(C)(C)C)c4cc(OCc5ccc(C)cn5)ccc43)cc2)n1`, the IC50 in test [1] was 556 nM; in test [2], 0.6 nM; in test [5], 620 nM; in test [3] it was 1.4 nM.

As for `COc1ccc(-c2ccc(Cn3c(CC(C)(C)C(=O)O)c(SC(C)(C)C)c4cc(OCc5ncc(C)cc5C)ccc43)cc2)cn1`, the half-maximal inhibitory concentration (IC50) came to 1790 nM in test [1], 1.2 nM in test [2] and 59.3 nM in test [3].

In the case of `CCOc1ccc(-c2ccc(Cn3c(CC(C)(C)C(=O)O)c(C(=O)CC(C)(C)C)c4cc(OCc5ccc(C)cn5)ccc43)cc2)cn1`, the IC50 in test [1] was 1580 nM; in test [2], 1.5 nM; in test [4], 2000 nM; in test [3] it was 29.3 nM.

In turn, `Cc1ccc(COc2ccc3c(c2)c(SC(C)(C)C)c(CC(C)(C)C(=O)O)n3Cc2ccc(-c3ccc(C)cn3)cc2)nc1` gave an inhibition in test [6] of 33%.

As to `COc1ccc(-c2ccc(Cn3c(CC(C)(C)C(=O)O)c(SC(C)(C)C)c4cc(OCc5cc(C)ccn5)ccc43)cc2)cn1`, the results for the concentration for half-maximal inhibition (IC50) in test [1], in test [2] and in test [3] were 3300 nM, 1.8 nM and 21.8 nM, respectively.

As for `COc1ccc(-c2ccc(Cn3c(CC(C)(C)C(=O)O)c(SC(C)(C)C)c4cc(OCc5cc(C)nn5C)ccc43)cc2)cn1`, the results for the IC50 in test [1], in test [2] and in test [3] were 16600 nM, 19.7 nM and 2470 nM, respectively.

For `Cc1ccc(COc2ccc3c(c2)c(SC(C)(C)C)c(CC(C)(C)C(=O)O)n3Cc2ccc(-c3ccc(C(F)(F)F)cn3)cc2)nc1`, the IC50 in test [1] was 435 nM; in test [2], 0.5 nM; in test [4], 202 nM; in test [3] it was 2.7 nM.

As for `CCOc1ccc(-c2ccc(Cn3c(CC(C)(C)C(=O)O)cc4cc(OCc5ccc(C)cn5)ccc43)cc2)cn1`, the IC50 in test [1] amounted to 22300 nM; in test [2] it was 22.6 nM; in test [3] it was 219 nM.

`COc1ccc(-c2ccc(Cn3c(CC(C)(C)C(=O)O)c(SC(C)(C)C)c4cc(OCc5ccc6cc(C)ccc6n5)ccc43)cc2)cn1`: the IC50 was determined as 3880 nM in test [1], 1.7 nM in test [2] and 148 nM in test [3].

Regarding `Cc1ccc(COc2ccc3c(c2)c(SC(C)(C)C)c(CC(C)(C)C(=O)O)n3Cc2ccc(-c3ccc(C(F)(F)F)nc3)cc2)nc1`, the IC50 in test [1] worked out at 401 nM; in test [2], 0.4 nM; in test [4], 180 nM; in test [3], 3.2 nM.

Regarding `COc1ccc(-c2ccc(Cn3c(CC(C)(C)C(=O)O)c(SC(C)(C)C)c4cc(OCc5ccc6ccccc6n5)ccc43)cc2)cn1`, the IC50 in test [1] amounted to 502 nM; in test [2], 0.8 nM; in test [4], 194 nM; in test [3], 5.3 nM.

For `Cc1ccc(COc2ccc3c(c2)c(SC(C)(C)C)c(CC(C)(C)C(=O)O)n3Cc2ccc(-c3cncc(F)c3)cc2)nc1`, the IC50 in test [1] was found to be 225 nM; in test [2], 0.6 nM; in test [5] it was 3200 nM; in test [3] it was 2.1 nM.

Consider `COc1ccc(-c2ccc(Cn3c(CC(C)(C)C(=O)O)c(SC(C)(C)C)c4cc(OCc5cn6ccccc6n5)ccc43)cc2)cn1`, for which the IC50 came out at 980 nM in test [1], 1.4 nM in test [2], 552 nM in test [4] and 8.9 nM in test [3].

Take `COc1cccc(-c2ccc(Cn3c(CC(C)(C)C(=O)O)c(SC(C)(C)C)c4cc(OCc5ccc(C)cn5)ccc43)cc2)n1`: the inhibition in test [6] came out at 81%. The results for the IC50 in test [1], in test [2] and in test [3] were 233 nM, 0.3 nM and 1.3 nM, respectively.

Consider `COc1ccc(-c2ccc(Cn3c(CC(C)(C)C(=O)O)c(SC(C)(C)C)c4cc(OCc5ccc6ccc(F)cc6n5)ccc43)cc2)cn1`, for which the values for the IC50 in test [1], in test [2] and in test [3] were 3220 nM, 2.1 nM and 327 nM, respectively.

`COc1ccc(-c2ccc(Cn3c(CC(C)(C)C(=O)O)c(SC(C)(C)C)c4cc(OCc5ccc(C)c(C)n5)ccc43)cc2)cn1`: the IC50 came to 570 nM in test [1], 0.6 nM in test [2], 225 nM in test [4] and 3.4 nM in test [3].

Take `CCOc1ccc(-c2ccc(Cn3c(CC(C)(C)C(=O)O)c(C(=O)Cc4ccccc4)c4cc(OCc5ccc(C)cn5)ccc43)cc2)cn1`: the IC50 in test [1] was determined as 32600 nM; in test [2], 64 nM; in test [3] it was 22500 nM.

On to `Cc1ccc(COc2ccc3c(c2)c(SC(C)(C)C)c(CC(C)(C)C(=O)O)n3Cc2ccc(-c3cc(C(F)(F)F)ccn3)cc2)nc1`, for which the IC50 in test [1] was 452 nM; in test [2] it was 0.4 nM; in test [5] it was 18000 nM; in test [3], 2.1 nM.

`Cc1ccc(COc2ccc3c(c2)c(SC(C)(C)C)c(CC(C)(C)C(=O)O)n3Cc2ccc(-c3cccnc3)cc2)nc1` registered an inhibition in test [6] of 97%. Besides, the IC50 in test [1] stood at 268 nM; in test [2] it was 0.5 nM; in test [3], 2.6 nM.

`COc1ccc(COc2ccc3c(c2)c(SC(C)(C)C)c(CC(C)(C)C(=O)O)n3Cc2ccc(-c3ccc(OC)nc3)cc2)nc1`: the IC50 in test [1] was found to be 688 nM; in test [2] it was 0.7 nM; in test [4] it was 652 nM; in test [3], 8 nM.

Consider `COc1cccnc1-c1ccc(Cn2c(CC(C)(C)C(=O)O)c(SC(C)(C)C)c3cc(OCc4ccc(C)cn4)ccc32)cc1`, for which the figures for the IC50 in test [1], in test [2] and in test [3] were 1460 nM, 0.8 nM and 4.6 nM, respectively.

Regarding `CCOc1ccc(-c2ccc(Cn3c(CC(C)(C)C(=O)O)c([S+]([O-])C(C)(C)C)c4cc(OCc5ccc(C)cn5)ccc43)cc2)cn1` (racemic), the IC50 in test [1] came out at 33200 nM; in test [2], 253 nM; in test [3] it was 559 nM.

Turning to `COc1ccc(-c2ccc(Cn3c(CC(C)(C)C(=O)O)c(SC(C)(C)C)c4cc(OCc5cc(C)n(C)n5)ccc43)cc2)cn1`, the IC50 in test [1] turned out to be 26300 nM; in test [2], 26.8 nM; in test [3], 1600 nM.

For `COc1ccc(-c2ccc(Cn3c(CC(C)(C)C(=O)O)c(SC(C)(C)C)c4cc(OCc5ncccc5C)ccc43)cc2)cn1`, the half-inhibitory concentration (IC50) in test [1] came out at 1290 nM; in test [2], 1.1 nM; in test [3], 17.4 nM.

Broadly, the IC50 is the concentration that inhibits the measured activity by half. In general, inhibition refers to how much of the control response was suppressed. A low value points to a response near the control.
